# Results from publication PMC6152224 (Molecules : A Journal of Synthetic Chemistry and Natural …, 2017).
# Where a name gives a salt, the structure may show the parent alone. Read-outs that look alike come from different tables or passages of the source.
# Columns and labels:
# ACHN cell line = test: cells; assay type: cell-based, human; conditions: read-out: IC50 ± SEM ACHN
# SH-SY5Y cell line = test: cells; assay type: cell-based, human; conditions: read-out: IC50 ± SEM SH-SY5Y
# [1] = PAMPA; taken from ref 52, 53; cited from earlier work
# [2] = system: HepG2, ACHN and SH-SY5Y cell lines; test: cells; conditions: Homo sapiens, 24 h, read-out: IC50 values for all the tested cell lines
# AChE = system: AChE; parameters: method as in PMID 23480140; conditions: versus THA and (−)-huperzine A; cited from earlier work
# HepG2 cell line = test: cells; assay type: cell-based, human; conditions: read-out: IC50 ± SEM HepG2
# [3] = PAMPA, pH 7.4
# hBChE = conditions: literature value; cited from earlier work
# hAChE = biological target: T1, hAChE (Homo sapiens, UniProt P22303); test: Kinetic study of AChE inhibition (Lineweaver-Burk, nonlinear regression); assay type: biochemical
# T1 construct: purchased Sigma-Aldrich (Prague, Czech Republic)
# [4] = Experimentally determined physicochemical values with Sirius T3 device
# in vitro = conditions: PAMPA, pH 7.4
# [5] = system: 3-nitropropionic acid (3-NP) intoxication; conditions: 3-NP-induced assay, HupY pretreatment; cited from earlier work
# [6] = biological target: T2, human plasmatic BChE (hBChE) (Homo sapiens, UniProt P06276); test: In vitro anti-cholinesterase assay (modified Ellman's method), hBChE; assay type: biochemical; conditions: mean of at least three experiments; read-out: IC50 ± SEM hBChE
# T2 construct: human plasmatic BChE (hBChE, E.C. 3.1.1.8, purchased from Sigma-Aldrich); purchased Sigma-Aldrich (Prague, Czech Republic); host or cells: human plasma
# [7] = MTT, cytotoxic profile assessed after 24 h
# T1 sequence (P22303 32-614): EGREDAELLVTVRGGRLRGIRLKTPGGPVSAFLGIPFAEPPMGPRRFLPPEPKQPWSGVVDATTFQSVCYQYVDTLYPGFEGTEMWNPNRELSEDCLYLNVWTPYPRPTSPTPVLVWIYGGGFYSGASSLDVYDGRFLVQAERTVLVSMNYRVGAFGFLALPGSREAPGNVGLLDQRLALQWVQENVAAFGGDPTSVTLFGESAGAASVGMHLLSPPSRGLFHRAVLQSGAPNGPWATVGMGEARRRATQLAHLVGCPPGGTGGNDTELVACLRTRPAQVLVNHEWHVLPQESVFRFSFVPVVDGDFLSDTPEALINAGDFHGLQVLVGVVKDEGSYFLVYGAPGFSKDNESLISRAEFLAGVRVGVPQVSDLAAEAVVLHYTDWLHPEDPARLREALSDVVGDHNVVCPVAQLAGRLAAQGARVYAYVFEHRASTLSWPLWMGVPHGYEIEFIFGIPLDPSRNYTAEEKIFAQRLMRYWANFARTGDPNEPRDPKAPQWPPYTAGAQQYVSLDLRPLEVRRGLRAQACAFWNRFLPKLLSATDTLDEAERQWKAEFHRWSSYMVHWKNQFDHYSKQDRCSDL
# T2 sequence (P06276 29-602): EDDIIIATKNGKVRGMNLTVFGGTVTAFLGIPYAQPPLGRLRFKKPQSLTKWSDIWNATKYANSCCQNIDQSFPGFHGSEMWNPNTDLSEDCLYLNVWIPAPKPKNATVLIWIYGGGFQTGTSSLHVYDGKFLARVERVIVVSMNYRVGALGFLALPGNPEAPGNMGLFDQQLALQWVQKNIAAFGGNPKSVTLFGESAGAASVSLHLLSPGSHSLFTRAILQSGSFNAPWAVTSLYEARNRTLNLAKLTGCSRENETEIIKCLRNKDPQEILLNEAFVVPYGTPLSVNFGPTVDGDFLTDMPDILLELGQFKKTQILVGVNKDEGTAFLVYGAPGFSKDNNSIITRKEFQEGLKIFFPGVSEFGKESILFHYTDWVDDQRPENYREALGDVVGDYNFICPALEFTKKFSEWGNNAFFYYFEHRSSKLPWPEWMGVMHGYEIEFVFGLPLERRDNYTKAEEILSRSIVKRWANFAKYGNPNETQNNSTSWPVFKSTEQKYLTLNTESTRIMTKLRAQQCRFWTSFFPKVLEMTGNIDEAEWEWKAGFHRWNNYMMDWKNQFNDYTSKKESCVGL
compound,measurement,setting,value
"Nc1c2c(nc3ccccc13)CCCC2 [THA, 1,2,3,4-tetrahydro-9-aminoacridine]",IC50,"ACHN cell line; Homo sapiens, ACHN, 24 h",155.2 ± 0.67 µM
same,IC50,"SH-SY5Y cell line; Homo sapiens, SH-SY5Y, 24 h",121 ± 1.97 µM
same,Pe ± SEM,[1],5.30 ± 0.20 ^c 10^−6 cm·s^−1
same,IC50,[2],120 to 168 µM
CCC1=CC2Cc3nc4cc(Cl)ccc4c(N)c3[C@@H](C1)C2 [HupX],AChE inhibition potency relative to the parent structures,AChE,more than 100 times
Nc1c2c(nc3cc(Cl)ccc13)CCCC2 [6-chlorotacrine],IC50,HepG2 cell line,43.2 ± 1.17 µM
same,IC50,ACHN cell line; [7],55.1 ± 1.76 µM
same,IC50,SH-SY5Y cell line; [7],50.4 ± 1.28 µM
same,Pe ± SEM,[1],5.00 ± 0.45 ^c 10^−6 cm·s^−1
"CN1C(C(=O)Nc2ccccn2)=C(O)c2ccccc2S1(=O)=O [Piroxicam, piroxicam]",Pe ± SEM,[3],2.20 ± 0.15 10^−6 cm·s^−1
CC1=C[C@@H]2Cc3nc4cc(Cl)ccc4c(N)c3[C@H](C1)C2 [(−)-HupY],IC50,hBChE,0.247 µM
"COc1ccc2nc3c(c(N)c2c1)C1CC(C)=CC(C3)C1 (racemic) [(±)-1·HCl, rac-6-Methoxy-15-methyl-10-azatetracyclo[11.3.1.0^2,11.0^4,9]heptadeca-2(11),3,5,7,9,14-hexaen-3-amine hydrochloride]",Ki',"hAChE; enzyme-substrate complex, inhibitor 1.00, 10.0 and 100 µM",3.67 ± 0.42 µM
same,type of inhibition,"hAChE; nonlinear regression, sum-of-squares F-test, p < 0.05",mixed type of inhibition
same,logD,"[4]; pH 7.4, read-out: logD7.4 (experimental)",1.73
same,logP,[4]; read-out: logP (experimental),3.58
same,pKa,[4]; read-out: pKa (experimental),9.54
same,IC50,"HepG2 cell line; Homo sapiens, HepG2, 24 h",14.91 ± 0.11 µM
same,IC50,"ACHN cell line; Homo sapiens, ACHN, 24 h",32.2 ± 0.72 µM
same,IC50,"SH-SY5Y cell line; Homo sapiens, SH-SY5Y, 24 h",17.84 ± 0.09 µM
same,Papp at 100 µM,in vitro,7.64 ± 0.22 ×10⁻⁶ cm/s
CC1=C[C@H]2Cc3nc4cc(Cl)ccc4c(N)c3[C@@H](C1)C2 [(+)-HupY],IC50,hBChE,0.153 µM
CC1=CC2Cc3nc4cc(Cl)ccc4c(N)c3C(C1)C2 (centres unmarked) [HupY],survival of pretreated mice,[5],increased the survival
"CO/N=C(\C(=O)N[C@@H]1C(=O)N2C(C(=O)O)=C(COC(N)=O)CS[C@H]12)c1ccco1 [Cefuroxim, cefuroxime]",Pe ± SEM,[3],2.70 ± 0.1 10^−6 cm·s^−1
"CC1=CC2Cc3nc4cc(Cl)ccc4c(N)c3C(C1)C2 (racemic) [(±)-HupY·HCl, rac-7-Chloro-15-methyl-10-azatetracyclo[11.3.1.0^2,11.0^4,9]heptadeca-2(11),3,5,7,9,14-hexaen-3-amine hydrochloride]",IC50,[6],0.358 ± 0.025 µM
same,IC50,"HepG2 cell line; Homo sapiens, HepG2, 24 h",15.9 ± 1.17 µM
same,IC50,"ACHN cell line; Homo sapiens, ACHN, 24 h",24.6 ± 0.32 µM
same,IC50,"SH-SY5Y cell line; Homo sapiens, SH-SY5Y, 24 h",17.5 ± 0.44 µM
same,Papp,in vitro,5.89 ± 0.36 ×10⁻⁶ cm/s
"COc1ccc2nc3c(c(N)c2c1)CCCC3 [Compound 7-MEOTA, 7-methoxytacrine]",IC50,"HepG2 cell line; Homo sapiens, HepG2, 24 h",44.4 ± 3.35 µM
same,IC50,"ACHN cell line; Homo sapiens, ACHN, 24 h",49.3 ± 2.69 µM
same,IC50,"SH-SY5Y cell line; Homo sapiens, SH-SY5Y, 24 h",26.8 ± 1.04 µM
same,Papp,in vitro,6.5 ± 1.85 ×10⁻⁶ cm/s
